Columns and labels:
[1] = test system: autonomic nerve; settings: intravenous administration; cited from earlier work
[2] = test system: time of stay on the open arms; test: Elevated plus-maze test (anti-anxiety effect); format: in vivo; settings: ddY mice, oral 0.1 mg/kg weight to 100 mg/kg weight, test 30 minutes after administration
Protocol: Water, 0.1 mg/kg weight to 100 mg/kg weight of Tyr-Pro, or 10 mg/kg to 1000 mg/kg weight of a casein hydrolysate was administered to mice (n=12), and the time for which the mice stayed on open arms was measured (Example 4). […] The data were expressed in the form of mean±standard error. A significance test with respect to the water-administered control group was conducted by an unpaired Student's t test, and *, **, and *** indicate that P<0.05, P<0.01, and P<0.001, respectively.
Male ddY mice (approximately 6-week old) (n=12) were used. After preliminary feeding, Tyr-Pro (0.1 mg/kg weight, 1.0 mg/kg weight, 10 mg/kg weight, 30 mg/kg weight, or 100 mg/kg weight) or a casein hydrolysate (10 mg/kg weight, 100 mg/kg weight, or 1000 mg/kg weight) was administered once orally. The anti-anxiety effect was examined by an elevated plus-maze test 30 minutes after the administration. The casein hydrolysate was the same as that in Example 1. […] The behaviors thereof were observed, and the accumulative time of stay on the open arms was measured. From the measured value, the percentage of the accumulative time of stay on the open arms in a 5-minute test was found, and used as an index of the anti-anxiety effect. […] The measured values were expressed in the form of mean±standard error for each group and a comparison with the control group was conducted by using an unpaired Student's t test.

[3] = test system: sympathetic nerve controlling the adrenal gland; test: Action potential of the sympathetic nerve controlling the adrenal gland (ASNA) after oral administration; format: in vivo, rat; settings: rats, 0.012 mg/kg weight, 5 to 60 minutes after administration, ANOVA
Protocol: […] […] Values for 5 to 60 minutes after the administration were treated as a group, and a significance test with respect to the water-administered control group was conducted by the analysis of variance (ANOVA).
(§1) Male Wister rats (approximately […]) (n=3) with a body weight of approximately 300 g were used, and they took food and water ad lib. To examine the activity of the autonomic nerve, after a 3-hour fast, a polyethylene tube for oral administration was inserted into the oral cavity of each rat under urethane anesthesia in the middle of a light period. Thereafter, a sympathetic nerve controlling the adrenal gland, a parasympathetic (vagus) nerve controlling the stomach, or sympathetic nerve in a cutaneous artery of the tail was hooked to a silver electrode, and the electrical activity of the nerve was determined. From the start of the operation to the completion of the determination, the tube was kept inserted in the trachea to secure the airway, and the body temperature (rectal temperature of the rat) was kept at 35.0±0.5° C. by using an incubator. In a period where the activities of these nerves were stabilized, 1 ml of each sample was orally administered through a polyethylene tube, and the changes in activities of these nerves were measured. […]

[4] = test system: sympathetic nerve in a cutaneous artery of the tail; test: Action potential of the sympathetic nerve in the cutaneous artery of the tail (CASNA) after oral administration; format: in vivo, rat; settings: rats, 0.12 mg/kg weight, 5 to 60 minutes after administration
Protocol: Water, 0.12 mg/kg weight of Tyr-Pro, or 4.2 mg/kg weight of a casein hydrolysate was administered to rats (n=3), and the action potential of the sympathetic nerve in the cutaneous artery of the tail was measured over time. […] Values for 5 to 60 minutes after the administration were treated as a group, and a significance test with respect to the water-administered control group was conducted by the analysis of variance (ANOVA).
Male Wister rats (approximately 0-week old) (n=3) with a body weight of approximately 300 g were used, and they took food and water ad lib. To examine the activity of the autonomic nerve, after a 3-hour fast, a polyethylene tube for oral administration was inserted into the oral cavity of each rat under urethane anesthesia in the middle of a light period. Thereafter, a sympathetic nerve controlling the adrenal gland, a parasympathetic (vagus) nerve controlling the stomach, or sympathetic nerve in a cutaneous artery of the tail was hooked to a silver electrode, and the electrical activity of the nerve was determined. […] In a period where the activities of these nerves were stabilized, 1 ml of each sample was orally administered through a polyethylene tube, and the changes in activities of these nerves were measured. […]

[5] = test system: gastric emptying function; test: Gastric emptying function test (phenol red dye discharge); format: in vivo, rat; settings: SD rats, oral 0.1 mg/kg weight, dye 30 minutes later, stomach extirpated 20 minutes after dye; mean±standard error; control 78.8±2.41%
Protocol: Water or 0.1 mg/kg weight of Tyr-Pro was administered to rats (n=10), and 30 minutes later a dye (phenol red) was administered. After additional 20 minutes, each stomach was extirpated, and the dye remaining in the stomach was determined. A significance test with respect to the water-administered control group was conducted by an unpaired Student's t test.
Male Sprague-Dawley (SD) rats (6-week old) (n=10) were used, and they took food and water ad lib. After preliminary feeding for one week or longer, the rats were subjected to the experiment. Prior to the test, all the rats were fasted in a fasting cage for 24 hours. During the period, the rats took water ad lib. In the test, a solvent (distilled water for injection) and 0.1 mg/kg weight of Tyr-Pro were orally administered to the rats, and, 30 minutes later, a 0.05% dye (phenol red) solution (containing 1.5% of carboxylmethyl cellulose) was orally administered at a volume of 1.5 ml/rat. Each stomach was extirpated under ether anesthesia 20 minutes after the administration of the dye without delay. […] The supernatant was centrifuged, and then measured for absorbance at 560 nm. The gastric emptying function (GE: gastric emptying) was calculated in accordance with the following formula.
GE(%)=(1−absorbance of solution recovered from stomachs of test-substance-administered group/absorbance at gastric emptying of 0%)×100 […]

[6] = test system: blood pressure; settings: orally administered; cited from earlier work
[7] = test system: scopolamine-induced amnesia; test: Scopolamine-induced amnesia, Y-shaped maze test (spontaneous alternation behavior); format: in vivo; settings: ddY mice, oral 1.5 mg/kg weight to 15 mg/kg weight, 60 minutes before Y-shaped maze; scopolamine 1 mg/kg s.c.
Protocol: A significance test on the groups was conducted by a Dunnett's multiple comparison test.
Male ddY mice (approximately 7-week old) (n=15) were used, and they took food and water ad lib.
The test substances were administered to the mice once orally 60 minutes before the execution of a Y-shaped maze test for evaluation of spontaneous alternation behavior. Further, 30 minutes before the execution of the Y-shaped maze test, 1 mg/kg weight of scopolamine was subcutaneously administered on the backs, of the mice in order to induce dysmnesia and/or cognitive impairment in the mice. […] The sequence of the arms into which each of the mice entered was recorded. The number of entries into the arms of each mouse during the measurement time was counted to be the total number of entries. […] The percentage of change in spontaneous alternation behavior was calculated by dividing the number of spontaneous alternation behavior by a number obtained by subtracting 2 from the total number of entries and multiplying a resultant number by 100. […] The measured values were expressed in the form of mean±standard error for each group. […]

[8] = test system: opioid receptors; settings: cited from earlier work
[9] = test system: pain; settings: rat, intraperitoneal; cited from earlier work
[10] = test system: parasympathetic (vagus) nerve controlling the stomach; test: Action potential of the parasympathetic (vagus) nerve controlling the stomach (GVNA) after oral administration; format: in vivo, rat; settings: rats, 5 to 60 minutes after administration, ANOVA
Protocol: Water or 0.045 mg/kg weight or 0.12 mg/kg weight of Tyr-Pro was administered to rats (n=3), and the action potential of the parasympathetic (vagus) nerve controlling the stomach was measured over time. […] Values for 5 to 60 minutes after the administration were treated as a group, and a significance test with respect to the water-administered control group was conducted by the analysis of variance (ANOVA).
as §1, with “From the start of the operation to the completion of the determination, the tube was kept inserted in the trachea to secure the airway, and the body temperature (rectal temperature of the rat) was kept at 35.0±0.5° C. by using an incubator.” left out

Compound | effect of controlling the autonomic nerve [1] | anti-anxiety effect [2] | sympathetic nervous activity in the adrenal gland in comparison with the water-administered group [3] | sympathetic nervous activity in the cutaneous artery in comparison with the water-administered group [4] | dye discharge percentage (gastric emptying, GE) [5] [%] | effect of lowering the blood pressure [6] | effect of preventing amnesia [7] | binding capability to opioid receptors [8] | analgesic effect [9] | parasympathetic nervous activity in the stomach in comparison with the water-administered group ([10]; 0.045 mg/kg weight) | parasympathetic nervous activity in the stomach in comparison with the water-administered group ([10]; 0.12 mg/kg weight)
NCCC(=O)N[C@@H](Cc1cnc[nH]1)C(=O)O [carnosine] | an effect of controlling the autonomic nerve | – | – | – | – | – | – | – | – | – | –
Tyr-Pro | – | exhibited an anti-anxiety effect | significantly decreased | a tendency was observed that the sympathetic nervous activity in the cutaneous artery was lowered | 85.4±2.01 | effect of lowering the blood pressure | an effect of preventing amnesia | lacks binding capability to opioid receptors | exhibit an analgesic effect | significantly increased | significantly increased
